{"source": "patent US7160859B2", "about": "“Mst1 modulation of apoptosis in cardiac tissue and modulators of Mst1 for treatment and prevention of cardiac disease” (University of Medicine & Dentistry of New Jersey, priority 2002, dated 2007)", "key": {"[1]": {"system": "Neonatal rat cardiac myocytes", "assay": "Phenylephrine-induced hypertrophy of cultured cardiac myocytes", "type": "cell-based", "details": "PE 10 μM 48 h, LacZ virus-transduced myocytes", "excerpt": "We have previously and above shown that mammalian sterile-20 like kinase 1 (Mst1) plays an important role in mediating cardiac myocyte apoptosis in response to ischemia/reperfusion and doxorubicin treatment. Cardiac specific overexpression of Mst1 in transgenic mice (Tg-Mst1) increases cardiac myocyte apoptosis in the heart and the mice develop dilated cardiomyopathy (DCM) and congestive heart failure within 3 months of age. […] Lack of compensatory cardiac myocyte hypertrophy may adversely affect LV function of Tg-Mst1 because operation of the Frank Starling mechanism could be less efficient at the individual cell level. This study was undertaken in order to elucidate if transient expression of Mst1 has a direct anti-hypertrophic effects in cultured cardiac myocytes in vitro. Neonatal rat cardiac myocytes were transduced with adenoviral vectors (10 MOI) in serum-free conditions for 48 h and then treated with phenylephrine (PE, 10 μM) for 48 h. Phenylephrine stimulates hypertrophy of cardiac myocytes in normal animals. Treatment of LacZ virus-transduced myocytes with PE caused a 2.4 fold increase in the cell size and a 1.7 fold increase in protein/DNA content. […] In summary, Mst1 has a direct anti-hypertrophic effect upon PE-treated cultured cardiac myocytes, possibly affecting other signaling mechanisms, including ERKs."}, "cardiac myocytes [2]": {"system": "cardiac myocytes", "assay": "Cell Death Detection ELISA: cytoplasmic accumulation of mono- and oligo-nucleosomes (DNA fragmentation)", "type": "cell-based, rat", "description": "Primary cultures of ventricular cardiac myocytes were prepared from 1-day-old Crl: (WI) BR-Wistar rats (Charles River Laboratories, Wilmington, Mass.) as described previously (34). A cardiac myocyte rich fraction was obtained by centrifugation through the discontinuous Percoll gradient as described (34). Cells were cultured in the cardiac myocyte culture medium containing Dulbecco's modified Eagle medium (DMEM)/F12 supplemented with 5% horse serum, 4 μg/mL transferrin, 0.7 ng/mL sodium selenite (GIBCO), 2 g/L bovine serum albumin (fraction V), 3 mmol/L pyruvic acid, 15 mmol/L HEPES, 100 μmol/L ascorbic acid, 100 μg/mL ampicillin, 5 μg/mL linoleic acid and 100 μmol/L 5-bromo-2′-deoxyuridine (Sigma). We obtained myocyte cultures in which more than 95% were myocytes, as assessed by immunofluorescence staining with a monoclonal antibody against sarcomeric myosin (MF20). Culture media were changed to serum-free at 24–36 h and then subjected to adenovirus transduction. Myocytes were cultured in the serum-free condition for 48 h before experiments.\nHistone-associated DNA fragments were quantified by the Cell Death Detection ELISA (Roche, Indianapolis, Ind.) according to the manufacturer's instruction as described (35) with minor modification for sample preparation. In brief, myocytes were rinsed with PBS three times in order to remove nucleosomes leaked out from necrotic cells and then incubated with the lysis buffer for 30 min. The supernatant containing mono- and oligonucleosomes from the cytoplasmic fraction of apoptotic cells was used for further analyses. DNA fragmentation of the tissue samples was determined by DNA laddering assays. Genomic DNA containing small molecular weight fragments was isolated and analyzed by agarose gel electrophoresis as described (36)."}, "caspase-3": {"system": "caspase-3", "assay": "Immunoblot with anti-cleaved caspase-3 antibody", "type": "cell-based, rat", "details": "Doxo, 6 and 24 hour time points", "excerpt": "For analyses of Mst1, cells were lysed in a Lysis Buffer A, containing 25 mmol/L NaCl, 25 mmol/L Tris (pH 7.4), 1 mmol/L Na3VO4, 10 mmol/L NaF, 10 mmol sodium pyrophosphate, 0.5 mmol/L EGTA, 0.5 mmol/L AEBSF, 0.5 μ/mL leupeptin, 0.5 μ/mL aprotinin. Samples containing the equal amount of protein were subjected to SDS-PAGE. Proteins were transferred onto polyvinylidene fluoride microporous membranes (Bio Rad, Hercules, Calif.) and probed with primary antibodies. We used anti-Mst1 monoclonal antibody (Transduction Laboratory, Lexington, Ky.) for detection of the carboxyl terminus of Mst1. Affinity purified rabbit polyclonal antibody was raised against animo-terminal ETVQLRNPPRRQLKC (pAb-15) (SEQ ID NO:4) (BioSource International, Camarillo, Calif.) for detection of the amino-terminus of Mst1. Blots were then probed by horseradish peroxidase-conjugated anti-mouse IgG or anti-rabbit IgG (Cell Signaling Technolog Inc., Beverly, Mass.). Antigen-antibody complexes were visualized by the enhanced chemiluminescence system (ECL, Amersham/Pharmacia, Piscataway, N.J.). Polyclonal antibodies raised against cleaved caspase-3 (Cell Signaling Technology Inc.) were used to determine activation of caspase-3, as described (35)."}, "cardiac myocytes [3]": {"system": "cardiac myocytes", "assay": "Morphology of cardiac myocytes (cell shrinkage, cell death)", "type": "cell-based, rat", "details": "within 6 h"}, "caspase-9": {"system": "caspase-9", "assay": "Western blot of caspase-9 cleavage", "type": "cell-based, rat", "details": "Doxo, 6 and 24 hour time points"}, "Mst1": {"system": "Mst1", "assay": "In gel myelin basic protein (MBP) kinase assay of cardiac myocyte lysates", "type": "cell-based, rat", "details": "in the presence of DEVD-CHO, 100 μM", "description": "FIGS. 1A, 1B, 1C, 1D and 1E depict Mst1 activity assessed on treatment of cardiac myocytes with chelerythrine (Chele) or calyculin A. (A) Cardiac myocytes were treated with indicated concentrations of chelerythrine for 1 h. Cell lysates were subjected to in-gel myelin basic protein (MBP) kinase assay as well as immunoblotting with anti-cleaved caspase-3 antibody. Results are representative of more than five experiments. (B) Cardiac myocytes were treated with chelerythrine (Chele). In the right panel, myocytes were transduced with either control virus or adenovirus harboring XIAP 48 hours before Chele application. Cell lysates were subjected with immune complex in-gel MBP kinase assays, using anti-Mst1 polyclonal antibody (pAb-15). The activity of cleaved Mst1 is shown. (C) Cardiac myocytes were treated with Chele for the indicated durations. […]\nPrimary cultures of ventricular cardiac myocytes were prepared from 1-day-old Crl: (WI) BR-Wistar rats (Charles River Laboratories, Wilmington, Mass.) as described previously (34). […] We obtained myocyte cultures in which more than 95% were myocytes, as assessed by immunofluorescence staining with a monoclonal antibody against sarcomeric myosin (MF20). […]"}}, "data": [{"compound": "CNC[C@H](O)c1cccc(O)c1", "note": "[PE, phenylephrine]", "values": [{"measurement": "increase in protein/DNA content", "setting": "[1]", "value": 1.7, "unit": "fold"}, {"measurement": "increase in the cell size", "setting": "[1]", "value": 2.4, "unit": "fold"}]}, {"compound": "COC[C@@H]([C@H](O)[C@H](O)C(=O)NCC[C@H](C)c1nc(/C=C/C[C@@H]2O[C@]3(C[C@@H](O)[C@@H]2C)O[C@H]([C@H](C[C@H](O)[C@H](C)[C@H](O)[C@H](C)/C=C(C)/C(C)=C/C=C/C(C)=C\\C#N)OC)[C@H](OP(=O)(O)O)C3(C)C)co1)N(C)C", "note": "[calyculin A]", "values": [{"measurement": "increase in cytoplasmic accumulation of oligo- and mono-nucleosomes", "setting": "cardiac myocytes [2]; vs untreated, n=4, p<0.05", "value": "4.3±1.4", "unit": "fold"}, {"measurement": "DNA fragmentation by calyculin A", "setting": "cardiac myocytes [2]; with control virus", "value": 5.6, "unit": "fold"}]}, {"compound": "COc1cccc2c1C(=O)c1c(O)c3c(c(O)c1C2=O)C[C@@](O)(C(=O)CO)C[C@@H]3O[C@H]1C[C@H](N)[C@H](O)[C@H](C)O1", "note": "[Dox, Doxorubicin]", "values": [{"measurement": "OD405 value (DNA fragmentation ELISA)", "setting": "cardiac myocytes [2]; 6 h treatment with 0.5 μM Dox, control virus", "value": 0.69}, {"measurement": "activation (cleavage) of caspase-3", "setting": "caspase-3", "value": "time dependent manner"}, {"measurement": "concentrations that dose-dependently induced cell shrinkage", "setting": "cardiac myocytes [3]", "value": "0.1 to 3", "unit": "µM"}, {"measurement": "activation (cleavage) of caspase-9", "setting": "caspase-9", "value": "time dependent manner"}]}, {"compound": "DEVD-CHO", "values": [{"measurement": "increased activities and cleavage of Mst1 by overexpression of Mst1", "setting": "Mst1", "value": "attenuated"}, {"measurement": "increases in DNA fragmentation by wild type Mst1", "setting": "cardiac myocytes [2]; in the presence of DEVD-CHO, 100 μM", "value": "inhibited"}]}]}
